Assay results published in patent publication US20190101551A1, “Real-time and Continuous Measurement in Vivo Using Aptamer-Based Biosensors” (The Regents of the University of California, priority 2016, published 2019).

Columns and labels:
in vivo = details: male, Sprague-Dawley, rat
Protocol: (§1) All in vivo measurements were performed using a two-electrode setup in which the reference and counter electrodes were a silver wire coated with a silver chloride film as described above. The measurements carried out in vivo were recorded using a handheld potentiostat.
(§2) In vivo Experiments Animals. Adult male Sprague-Dawley rats (300-500 g) were pair housed in a temperature and humidity controlled vivarium on a 12-h light-dark cycle and provided ad libitum access to food and water. All animal procedures were consistent with the guidelines of the NIH Guide for Care and Use of Laboratory Animals.
(§3) Surgery. For the anesthetized preparation, rats were anesthetized using isoflurane gas inhalation (2.5%) and monitored throughout the experiment using a pulse oximeter to measure heart rate and % SpO2 to insure depth of anesthesia. After exposing both ventral jugular veins, a simple catheter made from a [sequence] tube (Dow Corning, Midland, Mich., USA) fitted with a steel cannula was implanted into the left jugular vein. 0.1-0.3 mL of heparin (1000 U/mL) were immediately infused through the catheter to prevent blood clotting. The sensor was inserted into the right jugular vein and secured in place with surgical suture.
(§4) Measurements. A 30-minute sensor baseline was established before the first drug infusion. For anesthetized animals, a 3 mL syringe filled with the target drug was connected to the sensor-free catheter (placed in the jugular opposite that in which the sensor is emplaced) and placed in a motorized syringe pump. After establishing a stable baseline, the target drug was infused through this catheter at a rate of 0.2 mL/min. Target drugs included kanamycin (0.1 M solution), gentamicin (10 mg/mL), tobramycin (0.1 M solution), and doxorubicin (1.0 mM). After drug infusion, recordings were taken for up to 2 hours before the next infusion.
(§5) Sensors were fabricated using an aptamer recognizing the aminoglycoside antibiotics. Using these sensors, monotonically increasing intravenous doses of kanamycin were administered spanning the therapeutic ranges used in humans (10-30 mg/kg) and animals (25-30 mg/kg).
(§6) The pharmacokinetics of tobramycin were monitored following sequential 20 mg/kg intravenous injections conducted 2 hours apart in each of three rats.

[1] = Continuous real-time in vivo measurement of drug levels in blood with membrane-protected EAB sensors in the jugular vein of rats; details: anesthetized Sprague-Dawley rats, after each injection
Protocol: as §1, §2, §3, §4, §5, §6

[2] = male, Sprague-Dawley, rat, in vivo, iv
Protocol: as §1, §2, §3, §4, §5, §6

| Cmax (in vivo) [nM] | time to effective clearance of 90% of the drug from the circulatory system [1] [min] | maximum concentrations depending on the delivered dose [2] [µM] | maximum concentration observed ([2]; 10 mg/kg) [µM] | SMILES |
| --- | --- | --- | --- | --- |
| ~600 | ≤ 50 |  |  | COc1cccc2c1C(=O)c1c(O)c3c(c(O)c1C2=O)C[C@@](O)(C(=O)CO)C[C@@H]3O[C@H]1C[C@H](N)[C@H](O)[C@H](C)O1 [DOX, doxorubicin] |
|  |  | 34 to 400 | 200 | NC[C@H]1O[C@H](O[C@H]2[C@H](O)[C@@H](O[C@H]3O[C@H](CO)[C@@H](O)[C@H](N)[C@H]3O)[C@H](N)C[C@@H]2N)[C@H](O)[C@@H](O)[C@@H]1O [kanamycin] |
